Laboratory results published in US10723699B2 (Hyundai Pharm Co., Ltd., priority 2015, dated 2020).
Entries after “also recorded” stand apart in the source; their conditions may differ. Where two headings read alike, the source gives them in different places.

Experiments:
[1] = target: T1, CYP2C19 (Homo sapiens, UniProt P33261); experiment: CYP inhibition assay (BD GENTEST kit); type: in vitro ADME; conditions: human, CYP2C19 enzyme/substrate mixture of BD GENTEST kit, pH 7.4, 10 μM; read-out: CYP inhibition (% at 10 μM) 2C19
T1 construct: purchased BD GENTEST 459400
Text: (§1) CYP enzymes play a major role in the metabolism of drugs. Depending on the inhibition activity of the CYP enzymes, the dose of the drugs and toxicity due to the co-administration of other drugs can be predicted. Therefore, we have measured the inhibitory activity for CYP3A4, CYP2C9, CYP1A2, CYP2D6 and CYP2C19 enzymes present in the body using the compounds of the present invention. Invitrogen P2862 kit was used for CYP2D6 inhibition assay, and BD GENTEST (459100, 459300, 459400, 459500) kits were used for CYP1A2, CYP2C9, CYP2C19 and CYP3A4 inhibition assay. In case of Invitrogen kit, the test materials were diluted in distilled water into 2.5× of the final test concentration.
(§2) In case of BD GENTEST kit, the test materials were diluted in acetonitrile into 50× of the final test concentration. NADPH-cofactor mixture containing cofactor, G6PDH and control protein was prepared in distilled water as per manufacturer's instruction. 4 μl of 50× test materials and 96 μl of NADPH-cofactor mixture were mixed in U-bottom 96-well plate, and the resulting mixture were pre-incubated at 37° C. for 10 minutes. Predetermined concentrations of enzyme/substrate mixture were prepared in distilled water using buffer (0.5M potassium phosphate, pH 7.4) and each of CYP450 enzyme/substrate mixture provided in the kit for the types of CYP450. To the pre-incubated plate, 100 μl of enzyme/substrate mixture was added, and then incubated at 37° C. for 15 minutes (CYP1A2), 30 minutes (CYP3A4 and CYP2C19) or 1.5 hours (CYP2C9). After completion of the reaction, the reactants were transferred to the white plates, and fluorescent values were measured using a micro-plate reader (Excitation and absorption wavelengths of CYP1A2 and CYP2C19 were 410 nm and 460 nm, respectively; and excitation and absorption wavelengths of CYP2C9 and CYP3A4 were 409 nm and 530 nm, respectively).
(§3) The measured values were converted into the inhibition percent of the test materials as compared to the value of the untreated control, and the results were summarized in Table 5.

[2] = target: T2, CYP1A2 (Homo sapiens, UniProt P05177); experiment: CYP inhibition assay (BD GENTEST kit); type: in vitro ADME; conditions: for inhibition at 15 min, 10 µM: human, CYP1A2 enzyme/substrate mixture of BD GENTEST kit, pH 7.4, 10 μM, read-out: CYP inhibition (% at 10 μM) 1A2
T2 construct: purchased BD GENTEST 459100
T2 sequence (P05177 1-516): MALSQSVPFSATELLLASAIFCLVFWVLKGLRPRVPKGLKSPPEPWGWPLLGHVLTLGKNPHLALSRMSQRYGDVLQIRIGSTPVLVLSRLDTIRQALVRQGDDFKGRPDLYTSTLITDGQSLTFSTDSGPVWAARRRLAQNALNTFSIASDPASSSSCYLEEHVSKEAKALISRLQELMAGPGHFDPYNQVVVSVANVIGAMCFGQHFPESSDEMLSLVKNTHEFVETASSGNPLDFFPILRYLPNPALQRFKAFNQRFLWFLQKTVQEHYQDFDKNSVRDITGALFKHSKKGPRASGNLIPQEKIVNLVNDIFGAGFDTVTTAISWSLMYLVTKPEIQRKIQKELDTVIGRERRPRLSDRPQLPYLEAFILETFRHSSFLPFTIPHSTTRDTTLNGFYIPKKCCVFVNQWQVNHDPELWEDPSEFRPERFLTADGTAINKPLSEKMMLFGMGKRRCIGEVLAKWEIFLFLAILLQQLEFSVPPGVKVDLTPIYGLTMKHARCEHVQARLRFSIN
Text: as §1, §2, §3

[3] = target: T3, CYP3A4 (Homo sapiens, UniProt P08684); experiment: CYP inhibition assay (BD GENTEST kit); type: in vitro ADME; conditions: human, CYP3A4 enzyme/substrate mixture of BD GENTEST kit, pH 7.4, 10 μM; read-out: CYP inhibition (% at 10 μM) 3A4
T3 construct: purchased BD GENTEST 459500
Text: as §1, §2, §3

[4] = target: T4, CYP2C9 (Homo sapiens, UniProt P11712); experiment: CYP inhibition assay (BD GENTEST kit); type: in vitro ADME; conditions: for inhibition at 1.5 h, 10 µM: human, CYP2C9 enzyme/substrate mixture of BD GENTEST kit, pH 7.4, 10 μM, read-out: CYP inhibition (% at 10 μM) 2C9
T4 construct: purchased BD GENTEST 459300
Text: as §1, §2, §3

[5] = target: T5, G protein-coupled receptor 119 (GPR-119) (Mesocricetus auratus, UniProt A0A1U8CD06); experiment: cAMP activity in HIT-T15 cells (cAMP dynamic kit, FRET); type: cell-based, hamster
T5 construct: hamster-derived β-cells containing G protein-coupled receptor 119 (GPR-119), HIT-T15 cells; host or cells: HIT-T15 (hamster pancreatic β-cells)
T5 sequence (A0A1U8CD06 1-334): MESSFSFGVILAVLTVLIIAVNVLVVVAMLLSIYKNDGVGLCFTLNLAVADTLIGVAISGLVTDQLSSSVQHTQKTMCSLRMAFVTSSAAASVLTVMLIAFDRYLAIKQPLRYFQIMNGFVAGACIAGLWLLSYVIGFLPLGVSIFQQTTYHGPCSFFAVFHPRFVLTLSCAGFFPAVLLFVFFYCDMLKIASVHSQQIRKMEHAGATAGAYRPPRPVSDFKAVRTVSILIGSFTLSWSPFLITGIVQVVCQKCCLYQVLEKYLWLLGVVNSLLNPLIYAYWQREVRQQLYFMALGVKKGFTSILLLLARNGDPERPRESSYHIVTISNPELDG
Outline: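 Hamster HIT-T15 cells (60,000/well) were treated next day with compound at six concentrations, 0.0032–10 μM, for 1 h at 37° C. Cells were then lysed and cAMP measured by competitive HTRF immunoassay (D2-cAMP, cryptate anti-cAMP). Activity was derived as the change in FRET signal relative to DMSO.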

[6] = target: T6, CYP2D6 (Homo sapiens, UniProt P10635); experiment: CYP inhibition assay (Invitrogen P2862 kit); type: in vitro ADME; conditions: for inhibition at 1 h, 10 µM: human, CYP2D6 P450 BACULOSOMES (Invitrogen P2862 kit), probe Vivid CYP450 substrate, read-out: CYP inhibition (% at 10 μM) 2D6
T6 construct: purchased Invitrogen P2862
Text: as §1
P450 BACULOSOMES® reagent and regeneration device (100×) provided by the Invitrogen kit were diluted in the Vivid® reaction buffer (2×) into the appropriate concentration for the type of CYP450. After mixing 80 μl of the 2.5× test material and 100 μl of the mixture of the diluted P450 BACULOSOMES® reagent in U-bottom 96-well plate, the resulting mixture was pre-incubated for 20 minutes. Vivid® CYP450 substrate and NADP+ (100×) were diluted in the Vivid® CYP450 reaction buffer (2×) into the appropriate concentration for the types of CYP450 and the substrates. After completion of the pre-incubation, 20/l of the substrate-NADP (nicotinamide adenine dinucleotide phosphate) mixture was added, and then incubated for 1 hour. After completion of the reaction, the reactants were transferred to the white plates, and fluorescence values were measured using a micro-plate reader (Excitation and absorption wavelengths of CYP2D6 were 400 nm and 502 nm, respectively).
as §3

[7] = tested on: male C57BL/6J (C57 black 6) rats in a high-fat diet model; experiment: Oral glucose tolerance test (OGTT), high-fat diet model; type: in vivo; conditions: 20 mg/kg oral, Table 3
Protocol: To evaluate in vivo effective effects of the cyclohexene derivatives according to the present invention, experiments were carried out, as follows.
Specifically, male C57BL/6J (C57 black 6) […] (8 to 10 weeks old) in a high-fat diet model were acclimated for at least 7 days, and only healthy rat populations were selected and subjected to an oral glucose tolerance test (OGTT). The rats were fasted for 12 to 15 hours, and then randomly divided into groups with five rats per group. Thereafter, each of the compounds of Examples 1, 14, 48, 69, 80, 118, 139, 147, 148, 169, 190, 199, 200, 204, 227, 277, 290, 291, 442, 443, and 461 to 466, and Comparative Examples 1 and 2 according to the present invention was administered to the rats at a dose of 20 mg/kg. In this case, a vehicle (0.5%, carboxymethyl cellulose (CMC)) was administered as an untreated group, and the dose of the compound administered together with the vehicle was orally administered at 10 ml/kg. After 30 minutes of administration, glucose (2 g/kg) was orally administered at a dose of 10 ml/kg. A blood glucose level was measured using an Accu-Chek Active Strip (Rosche Diagnostic Co.). In this case, the glucose level in blood collected via caudal venipuncture was measured at time points of −30, 0, 20, 40, 60, and 120 minutes after glucose administration. […]

[8] = tested on: diet-induced obesity (DIO) rat model; experiment: OGTT at the end of the 4-week administration in DIO rat model; type: in vivo, Sprague Dawley (SD) rats; conditions: 300 mg/kg oral; glucose 2 g/kg 30 minutes later; after 4-week administration
Protocol: (§4) Specifically, male Sprague Dawley (SD) rats (approximately 4 weeks old) in a diet-induced obesity model were fed with a high-fat diet (Lab. Diet Co.) for approximately 10 weeks to induce high-fat diet-induced obesity (DIO). The rats undergoing the high-fat diet were randomly selected, and divided into groups (n=8) for respective administrations. The compounds of Comparative Examples 3 and 4 and Examples 48 and 119 were administered to the divided DIO rats each group for 4 weeks.
(§5) The weights of the DIO rats were measured twice a week during a period of administration of 4 weeks to record a change in the weights. At the end of the 4-week period of administration, a hypoglycemic effect was evaluated using an oral glucose tolerance test (OGTT), as follows.
Specifically, each of the compounds of Comparative Example 3 (300 mg/kg) and Examples 48 and 119 (10, 20, 50 mg/kg) was administered, and 2 g/kg of glucose was orally administered after 30 minutes of the administration. A blood glucose level was determined using an Accu-Chek Active Strip (Roche diagnostic Co.). In this case, the glucose level in blood collected via caudal venipuncture was measured at time points of −30, 0, 20, 40, 60, and 120 minutes after glucose administration. […]

[9] = tested on: diet-induced obesity (DIO) rat model; experiment: Changes in weights in diet-induced obesity (DIO) rat model, 4-week administration; type: in vivo, Sprague Dawley (SD) rats; conditions: 300 mg/kg oral, 4 weeks
Protocol: To simultaneously evaluate both the weight-loss and hypoglycemic effects of the cyclohexene derivative according to the present invention, experiments were carried out, as follows.
as §4, §5

T6 sequence (P10635 whole entry): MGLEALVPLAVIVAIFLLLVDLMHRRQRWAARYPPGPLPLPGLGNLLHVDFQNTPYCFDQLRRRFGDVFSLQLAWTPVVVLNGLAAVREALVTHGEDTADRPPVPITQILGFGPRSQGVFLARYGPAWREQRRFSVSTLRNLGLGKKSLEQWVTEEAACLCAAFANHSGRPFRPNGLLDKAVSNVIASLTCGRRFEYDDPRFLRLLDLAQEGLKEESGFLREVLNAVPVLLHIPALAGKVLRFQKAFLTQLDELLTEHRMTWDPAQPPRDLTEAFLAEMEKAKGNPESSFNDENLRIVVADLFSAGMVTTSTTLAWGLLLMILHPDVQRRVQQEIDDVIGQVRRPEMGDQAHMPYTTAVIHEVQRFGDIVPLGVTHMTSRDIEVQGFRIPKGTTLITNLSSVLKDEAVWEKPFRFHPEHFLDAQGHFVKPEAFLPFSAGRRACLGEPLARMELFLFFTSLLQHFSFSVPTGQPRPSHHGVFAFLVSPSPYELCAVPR
T4 sequence (P11712 whole entry): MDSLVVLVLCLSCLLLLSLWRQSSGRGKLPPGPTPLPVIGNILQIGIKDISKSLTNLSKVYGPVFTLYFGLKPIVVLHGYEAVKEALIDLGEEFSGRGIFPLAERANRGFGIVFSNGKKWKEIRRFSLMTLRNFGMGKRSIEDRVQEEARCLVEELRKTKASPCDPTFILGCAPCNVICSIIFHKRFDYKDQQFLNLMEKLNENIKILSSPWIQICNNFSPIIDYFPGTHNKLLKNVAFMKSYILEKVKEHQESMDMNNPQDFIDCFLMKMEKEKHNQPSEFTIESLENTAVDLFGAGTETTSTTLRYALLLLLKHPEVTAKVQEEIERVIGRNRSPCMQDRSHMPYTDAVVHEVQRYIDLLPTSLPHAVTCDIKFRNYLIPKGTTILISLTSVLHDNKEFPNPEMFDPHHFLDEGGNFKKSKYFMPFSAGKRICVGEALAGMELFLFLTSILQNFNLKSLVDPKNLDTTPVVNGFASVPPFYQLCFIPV
T3 sequence (P08684 whole entry): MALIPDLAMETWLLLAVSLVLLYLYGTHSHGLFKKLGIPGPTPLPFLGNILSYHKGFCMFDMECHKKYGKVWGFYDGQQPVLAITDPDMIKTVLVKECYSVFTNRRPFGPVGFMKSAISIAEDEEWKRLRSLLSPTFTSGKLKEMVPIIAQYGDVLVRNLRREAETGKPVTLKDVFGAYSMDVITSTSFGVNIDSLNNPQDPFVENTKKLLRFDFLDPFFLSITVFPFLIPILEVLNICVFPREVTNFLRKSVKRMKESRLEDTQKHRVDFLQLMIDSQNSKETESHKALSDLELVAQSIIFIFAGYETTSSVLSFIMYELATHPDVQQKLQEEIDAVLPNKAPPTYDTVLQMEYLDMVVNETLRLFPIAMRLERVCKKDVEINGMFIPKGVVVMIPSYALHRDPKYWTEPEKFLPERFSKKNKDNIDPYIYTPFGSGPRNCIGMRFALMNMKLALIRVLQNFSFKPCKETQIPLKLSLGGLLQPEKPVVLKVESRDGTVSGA
T1 sequence (P33261 whole entry): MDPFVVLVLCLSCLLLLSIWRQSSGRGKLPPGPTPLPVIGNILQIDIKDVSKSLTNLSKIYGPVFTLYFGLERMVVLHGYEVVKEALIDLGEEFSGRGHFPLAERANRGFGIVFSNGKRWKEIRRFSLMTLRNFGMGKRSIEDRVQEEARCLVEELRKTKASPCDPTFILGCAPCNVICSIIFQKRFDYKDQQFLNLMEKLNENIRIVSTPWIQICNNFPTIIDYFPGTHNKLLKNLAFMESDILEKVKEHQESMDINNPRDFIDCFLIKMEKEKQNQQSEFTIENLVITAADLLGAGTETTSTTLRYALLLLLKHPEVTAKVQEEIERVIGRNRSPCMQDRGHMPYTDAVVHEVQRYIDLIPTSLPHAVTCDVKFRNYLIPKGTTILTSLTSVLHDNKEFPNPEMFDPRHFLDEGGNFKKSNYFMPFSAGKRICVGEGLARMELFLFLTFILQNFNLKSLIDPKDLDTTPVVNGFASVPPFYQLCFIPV

Structure (SMILES) | inhibition at 30 min, 10 µM [1] | inhibition at 30 min, 10 µM [3] | inhibition at 15 min, 10 µM [2] | inhibition at 1.5 h, 10 µM [4] | inhibition at 1 h, 10 µM [6] | hypoglycemic effect [7] | other results
CC(C)c1noc(C2CCN(c3ncnc(Nc4ccc(S(C)(=O)=O)cc4F)c3[N+](=O)[O-])CC2)n1 [Comparative Example 1, N-(2-fluoro-4-methylsulfonylphenyl)-5-nitro-6-[4-(3-propan-2-yl-1,2,4-oxadiazol-5-yl)piperidin-1-yl]pyrimidine-4-amine, reference compound] |  | 47.8% | 10.4% | 24.1% | 9.84% | 13.5% | 
CC(C)c1noc(N2CCC(COc3ccc(-c4ccc(S(C)(=O)=O)cc4)nc3)CC2)n1 [Comparative Example 2, 2-(4-methanesulfonylphenyl)-5-({1-[3-(propan-2-yl)-1,2,4-oxadiazol-5-yl]piperidin-4-yl}methoxy)pyridine] |  |  |  |  |  | 15.3% | 
CN(C)C(=N)NC(=N)N [Comparative Example 3, Metformin] |  |  |  |  |  |  | hypoglycemic effect [8]: approximately 22%; changes in weights of rats (weight-loss effect) [9]: weight loss was observed for 2 weeks; also recorded: the weight rather increased after 2 weeks

Continued, in another order:

inhibition at 30 min, 10 µM [1] | inhibition at 30 min, 10 µM [3] | inhibition at 15 min, 10 µM [2] | inhibition at 1.5 h, 10 µM [4] | inhibition at 1 h, 10 µM [6] | Structure (SMILES) | hypoglycemic effect [7] | other results
44.9% | 33.1% |  |  |  | CCc1cnc(N2CCC(COc3ccc(C4=CCC(C(=O)N5CCC[C@@H]5CO)CC4)cc3)CC2)nc1 (single isomer, unassigned; (+)) [Example 290] |  | CYP inhibition (% at 10 μM) 1A2 ([2]; 10 μM): 3.82%; CYP inhibition (% at 10 μM) 2C9 ([4]; 10 μM): 23.97%; EC50 ([5]; 1 hour at 37° C., six concentrations 0.0032 to 10 μM, read-out: EC50): 3.8 nM; EC50 ([5]; Table 2, read-out: EC50 value): ≤ 50 nM; CYP inhibition (% at 10 μM) 2D6 ([6]; 10 µM): 48.97%
48.4% | 48.2% | 0% | 29.8% | 9.42% | CCc1cnc(N2CCC(COc3ccc(C4=CCC(C(=O)N5CCC[C@@H]5CO)CC4)cc3)CC2)nc1 (stereo partly drawn) [Example 118, (4-(4-((1-(5-ethylpyrimidin-2-yl)piperidin-4-yl)methoxy)phenyl)cyclohex-3-enyl)((R)-2-(hydroxymethyl)pyrrolidin-1-yl)methanone] |  | 
